Literature values, collected in US10695734B2, “Microcapsule comprising a polyester-urethane shell and a hydrophilic core material” (BASF SE, priority 2015, dated 2020).
Counter-ions that a name gives are not always drawn.

Details: at 20° C.

SMILES | water solubility
COc1c(Cl)ccc(Cl)c1C(=O)O [dicamba sodium salt] | > 100 mg/mL
O=C(O)CNCP(=O)(O)O [glyphosate potassium salt] | > 500 mg/mL
